The values that follow come from PubChem BioAssay AID562 (University of Pittsburgh Molecular Library Screening Center, 2006).

Calls of active or inactive are those of the source. How the calls were made is not given here. A value given as a limit tells only on which side of the number the result lay.

The target in the test is Dual specificity protein phosphatase 1 (Homo sapiens) (UniProt P28562). Put plainly: MKP-1 phosphatase inhibitors with catalase, dose response, biochemical, catalase added, active/probe assessment (AID 562). Conditions: recombinant MKP-1 phosphatase, fluorescence.
Chain of Dual specificity protein phosphatase 1 (Homo sapiens) (P28562 whole entry, looked up): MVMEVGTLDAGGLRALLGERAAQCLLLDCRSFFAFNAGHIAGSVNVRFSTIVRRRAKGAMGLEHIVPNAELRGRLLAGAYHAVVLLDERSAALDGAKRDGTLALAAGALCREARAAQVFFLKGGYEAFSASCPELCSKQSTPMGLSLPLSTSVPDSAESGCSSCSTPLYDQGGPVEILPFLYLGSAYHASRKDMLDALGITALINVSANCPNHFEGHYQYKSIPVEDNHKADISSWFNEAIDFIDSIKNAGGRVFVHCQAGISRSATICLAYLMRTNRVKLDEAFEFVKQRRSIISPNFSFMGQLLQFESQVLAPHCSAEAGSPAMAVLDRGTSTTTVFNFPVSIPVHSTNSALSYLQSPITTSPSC
With `CCOc1ccc2noc3c2c1C(=O)c1ccccc1-3`, the IC50 (in general, the concentration needed to halve the response being measured) was 30.2 µM.
On to `COc1ccc(Cn2c(C)nc3c(c2=O)c2nc4ccccc4nc2n3Cc2ccco2)cc1`, for which the IC50 is 22 µM.
Consider `O=C1Nc2ccccc2SC(c2ccccc2)C1O` (stereo unspecified), for which the IC50 was 35.5 µM.
Take `N#Cc1c(N2CCCC2)nc(N)c2c(N)nc(N3CCCC3)cc12`: the IC50 is > 50 µM (inactive).
With `COc1ccc(Br)cc1/C=c1\sc2nc(-c3ccco3)nn2c1=O`, the IC50 is 17.2 µM.
Consider `CCOc1ccc(-c2cc3nc(C4CCN(C(=O)OC(C)(C)C)CC4)c(C(=O)O)cn3n2)cc1`, for which the IC50 is 27.7 µM.
As to `CCn1nc(-c2ccccc2)nc2c(=O)n(C)c(=O)nc1-2`, the IC50 is > 50 µM (inactive).
`CCc1ccc(NC(=O)CSc2nc3ccccc3c(=O)n2CCN2CCOCC2)cc1`: the IC50 was > 50 µM (inactive).
On to `Cc1nc2c(C(=O)NCCC3=CCCCC3)c[nH]n2c(=O)c1Cl`, for which the IC50 is 49.9 µM.
With `[O-]/[N+](=C\c1ccc(OC(F)F)cc1)c1ccccc1`, the IC50 was > 50 µM (inactive).
With `CCn1nc(-c2cccs2)nc2c(=O)n(C)c(=O)nc1-2` the figure was > 50 µM (inactive); with `COc1ccc(-n2c(NC(=O)c3ccco3)c(C#N)c3nc4ccccc4nc32)cc1`, > 50 µM (inactive).
For the compound `CCCCCC#CCC#CCC#CCC#CCCCC(=O)O`, the IC50 was 13.1 µM.
Take `CC(C)Sc1nc2sc3c(c2c2nnc(SCC(=O)NCc4ccco4)n12)CCCC3`: the IC50 was 22.7 µM.
With `CC(C)Cn1c(N)c(C(=O)COC(=O)c2cc(-c3ccco3)nc3ccccc23)c(=O)n(C)c1=O`, the IC50 was 25.5 µM.
For the compound `[O-]/[N+](=C/c1ccc(F)cc1)c1ccccc1`, the IC50 is > 50 µM (inactive).
With `Cn1ncnc2c(=O)n(C)c(=O)nc1-2` the figure was > 50 µM (inactive); with `COCCCn1c(N)c(C(=O)NCCC(C)C)c2nc3ccccc3nc21`, > 50 µM (inactive).
For `CCCCn1c(NC(=O)c2ccccc2)c(C#N)c2nc3ccccc3nc21`, the IC50 is 32.4 µM.
Turning to `CCn1c(SCC(=O)Nc2ccc3c(c2)c2ccccc2n3CC)nnc1-c1ccco1`, the half-inhibitory concentration (IC50) was 21.1 µM.
With `O=C(c1cccs1)c1no[n+]([O-])c1C(=O)c1cccs1`, the IC50 was 6.96 µM.
Regarding `Cc1ccc(-c2csc(NC(=O)c3ccno3)n2)cc1`, the IC50 was 49.8 µM.
As for `CCCCn1c(SCC(=O)c2ccc(OC)cc2OC)nc2cc(S(N)(=O)=O)ccc21`, the IC50 was 42.1 µM.
In the case of `COC(=O)c1ccccc1NC(=O)CN1C(=O)C2CCCN2c2ncc(Cl)cc21` (stereo unspecified), the IC50 was > 50 µM (inactive).
Consider `CCOc1cc(/C=C(/C#N)c2ccc(F)cc2)ccc1OCc1ccc(C(=O)O)o1`, for which the 50% inhibitory concentration (IC50) was 41.8 µM.
With `FC(F)(F)c1ccc(N2CCOCC2)c(Nc2nc3ccccc3n3cnnc23)c1` the figure was > 50 µM (inactive).
Take `O=C(Nc1ccccc1)c1ccc2nc(-c3ccco3)c(-c3ccco3)nc2c1`: the IC50 was 32 µM.
With `Cc1ccc(/C=C/C2=Cc3c(sc(NC(=O)CSc4n[nH]c(N)n4)c3C#N)C(C)(C)C2)o1` the figure was 19.8 µM; with `CC(=O)[C@@H]1[C@@H]2C(=O)N(c3ccc(F)c(Cl)c3)C(=O)[C@@H]2C2c3ccccc3C=CN21` (stereo partly specified), > 50 µM (inactive); with `Nc1c(N2CCCC2)cc(Cl)c2nonc12`, > 50 µM (inactive).
Turning to `Cc1c(N=c2c(=O)c3ccccc3c2=O)c(=O)n(-c2ccccc2)n1C`, the IC50 was > 50 µM (inactive).
For `Cc1ccc(C)n1-c1cccc(C(=O)O)c1`, the IC50 was 16.9 µM.
Take `O=C(NC1(O)C(=O)c2ccccc2C1=O)c1ccccc1`: the IC50 is > 50 µM (inactive).
With `Cc1nc2cc(-c3cccc(F)c3)nn2c(C)c1CCC(=O)N1CCC2(CC1)OCCO2` the figure was > 50 µM (inactive); with `O=C(OC1CCCCC1)c1ccc2c(c1)C1C=CCC1C(C(=O)O)N2` (stereo unspecified), 17.5 µM; with `O=C1C=C(NCc2ccc(Cl)c(Cl)c2)CC1`, > 50 µM (inactive).
Consider `Cc1cccc(N2CCN(C(=O)Cc3c(C(=O)O)[nH]c4ccc(Cl)cc34)CC2)c1C`, for which the IC50 was 46.8 µM.
In the case of `CCOC(=O)c1ccc2c(c1)C1C=CCC1C(C(=O)O)N2` (stereo unspecified), the IC50 was 32.7 µM.
With `Cc1cc(NC(=O)c2ccc(S(=O)(=O)N3CCCC3)cc2)nc2c1c(=O)oc1ccccc12` the figure was 26.1 µM; with `O=C1c2ccccc2-c2onc3ccc(NCCCn4ccnc4)c1c23`, 35.2 µM; with `[O-]/[N+](=C\c1ccncc1)c1ccccc1`, 46.6 µM.
For the compound `COc1ccc(-c2cc3nc(C4CCN(C(=O)OC(C)(C)C)CC4)c(C(=O)O)cn3n2)cc1`, the IC50 is 36.3 µM.
With `COc1ccc2noc3c2c1C(=O)c1ccccc1-3` the figure was 14.3 µM; with `N#Cc1c(N)sc(=S)c2c1CCN(Cc1ccccc1)C2`, > 50 µM (inactive); with `O=C(Nc1ccc2nc(-c3ccco3)c(-c3ccco3)nc2c1)N1CCCCCC1`, 24.1 µM.
Take `CCCSc1nnc(NC(=O)c2sc3nc(-c4cccs4)ccc3c2N)s1`: the IC50 was 25.7 µM.
Regarding `CCCCCNC(=O)c1ccc2c(=O)[nH]c3c(C(=O)NCC4CCCO4)sc(=S)n3c2c1` (stereo unspecified), the IC50 is 36.7 µM.
On to `Cc1cccc(NC(=O)c2cc(NC(=O)C3CCCCC3C(=O)O)ccc2N2CCCCC2)c1` (stereo unspecified), for which the IC50 was > 50 µM (inactive).
Consider `Nc1nc2c(s1)CCc1c-2cnn1-c1ccccc1`, for which the IC50 was > 50 µM (inactive).
Turning to `N#Cc1c(NC(=O)c2ccc(Br)o2)n(-c2ccccc2)c2nc3ccccc3nc12`, the IC50 was > 50 µM (inactive).
On to `Cc1cc(C)n2c(SCC(=O)N3CCN(S(=O)(=O)c4ccc(Cl)cc4)CC3)nnc2n1`, for which the IC50 is 49.9 µM.
With `CCCCNC(=O)c1c(N)n(CCCOC)c2nc3ccccc3nc12` the figure was > 50 µM (inactive).
On to `COc1cc(/C=C(/C#N)c2ccc(F)cc2)ccc1OCc1ccc(C(=O)O)o1`, for which the IC50 was > 50 µM (inactive).
For the compound `O=C1C=Cc2ccccc2C1=O`, the concentration for half-maximal inhibition (IC50) is 22.5 µM.
With `CC(C)(C)N1C(=O)Cc2c1nc(N)c1c(N)nc(N3CCCCC3CO)c(C#N)c21` (stereo unspecified) the figure was > 50 µM (inactive); with `CC1=C(/C=C/C(C)=C/C=C/C(C)=C/C(=O)O)C(C)(C)CCC1`, 48.6 µM.
